Source: patent US20210299079A1, “MONOMETHYL FUMARATE-CARRIER CONJUGATES AND METHODS OF THEIR USE” (Flagship Pioneering Innovations V, Inc., priority 2018, published 2021)

How the values were obtained:
TNFα = assay: Cytokine Release from Human PBMCs: TNFα; format: cell-based; details: LPS, 24 hours, Concentration 100 μM
Protocol: (§1) Human donor blood (8 mL) was collected in sodium citrate CPT tubes and centrifuged at 1,600×g for 20 minutes at room temperature. Buffy coat containing PBMCs was collected and transferred to a 50 mL conical tube containing 30 mL of RPMI-1640 medium at room temperature (supplemented with penicillin-streptomycin). PBMCs samples were centrifuged at 400×g for 10 minutes at 10° C. The pelleted PBMCs were washed twice in 10 ml of RPMI-1640 medium (supplemented with penicillin-streptomycin), then resuspended in RPMI-1640 medium (supplemented with penicillin-streptomycin, fetal bovine serum, and L-Glutamine). PBMCs were filtered through a 70 micron mesh to remove any cellular debris. […] PBMCs in a 96-well plate were rested for 30 minutes in a 37° C., 5% CO2 incubator, then subsequently treated with 10 μI of indicated compound. After 2 hours 10 μL of LPS (0111:64) 1 mg/mL was added to test wells. After 24 hours of incubation at 37° C., 5% CO2, 100 μL of cell supernatant was collected and transferred to a 96-well plate (non-tissue treated, flat bottom). The plate was centrifuged at 350×g for 5 minutes at room temperature, and then the clear supernatant transferred to a new 96-well plate (non-tissue treated, flat bottom). The remaining cells were tested for viability using CellTiter-Glo® Luminescent Cell Viability Assay (Promega). The supernatant was analyzed for TNFα, IL-6 and IL-1β (kit […] Systems), using Luminex Immunoassay Technology (MAGPIX System).

MIP-1β = assay: Neutrophil Chemokine Production Assay: MIP-1β; format: cell-based; details: human neutrophils, 12 h
Protocol: (§2) A volume 25 mL of human blood was layered over 15 mL of Histopaque®-1077 and centrifuged at 500 g, R^T, for 30 min with no break applied to the centrifuge. The PBMC band and Histopaque®-1077 layer were removed leaving behind the bottom red layer which was mixed with 40 mL of 1× red blood cell (RBC) lysis buffer (Sigma-Aldrich) was and split into two 50 mL tubes. The volume for both fractions was brought to 50 mL with RBC lysis buffer, mixed by inversion, and then incubated at RT for 10 min. Solutions were centrifuged at 250 g, for 10 min at RT and the supernatant liquids removed. The reddish pellets were re-suspended in 1 mL of RBC lysis buffer and combined. The cell suspension was incubated for 5 min at RT in RBC lysis buffer. After incubation 45 mL of Hanks Balanced Salt Solution with no calcium, magnesium or phenol red (HBSS—) was added, the cell suspension was spun (250 g for 10 min at RT), and supernatant liquids were removed. The white pellet was re-suspended in 1 mL of HBSS—, and cell counts were determined. The neutrophil cell suspension was brought to a concentration of 1.11e6 cells/mL in RPMI complete (Sigma-Aldrich), and 180 μL of cell suspension was transferred to all wells within a sterile 96-well tissue culture treated plate resulting in 2.0×10^5 cells/well. […] After incubation, 10 μL of 2 μg/mL LPS solution in RPMI complete was added to each well except for control wells, which received an additional 10 μL of media. Cells were incubated for 12 h (37° C., 5% CO2), after which plates were centrifuged at 250 g, RT, for 5 min and supernatant liquids were obtained and stored at −80° C. until analyzed via Luminex® Multiplex Assay for various chemokines and cytokines. Three data points were acquired from two different blood donors and averaged.

MIP-1α = assay: Neutrophil Chemokine Production Assay: MIP-1α; format: cell-based; details: human neutrophils, 12 h
Protocol: as §2

Caco-2 colonocytes = assay: Human Caco-2 Barrier Integrity Assay, Study 1; format: cell-based; details: Caco-2, + cytokines (TNFα, IFNγ, IL-1β), 48 hours
Protocol: Caco-2 colonocytes were maintained at 37° C. and 5% CO2 in Dulbecco's Modified Eagle Medium (DMEM) and supplemented with 10% FBS, 1% NEAA, 1% penicillin-streptomycin. At 70-80% confluency, cells were trypsinized and seeded in 0.4 cm^2 transwell collagen I coated membranes with supplemented DMEM in both apical and basolateral compartments. […] After 48 hours, TEER readings were taken again and viability was measured by CellTiter 96® AQueous One Solution Cell Proliferation Assay (Promega).

IL-8 = assay: Neutrophil Chemokine Production Assay: IL-8; format: cell-based; details: human neutrophils, 12 h
Protocol: as §2

naïve CD4+ T cells = assay: Human Regulatory T Cell Differentiation Assay; format: cell-based; details: 6 days; for Cell viability % DMSO: viability dye; for activity at 1 µM: IL-2, 1 μM
Protocol: Peripheral blood mononuclear cells (PBMCs) from whole blood donated by health volunteers were separated by Ficoll-Paque gradient centrifugation and naïve CD4^+ T cells were subsequently isolated using magnet beads (EasySep™ Human Naïve CD4^+ T Cell Isolation Kit, Cambridge, Mass.). For regulatory T cell (Treg) differentiation assay, naïve CD4^+ T cells were cultured (1-10×10^4 cells) in CTS OpTmizer medium for 6 days and stimulated with 5 ng/ml TGF-β, 100 U/ml IL-2, and ImmunoCult™ Human […] T Cell Activator; Stemcell #10990) with/without our Compounds. Cell viability was determined using a viability dye (eBioscience Fixable Viability Dye eFluor 780: ThermoFisher 65-0865-14) at 1:500 dilution. The cells were gated for Treg, defined as Live, CD11c^−, CD14^−, CD19^−, CD8^−, CD4^+, CD3^+, CD25^+, FOXP3^+. Percent (%) Tregs were calculated as percentage of CD4^+, CD25^+, FOXP3^+ cells over total CD4^+ T cells. Statistical analysis was performed with GraphPad Prism Software Using One-Way ANOVA.

IL-1β = assay: Cytokine Release from Human PBMCs: IL-1β; format: cell-based; details: LPS, 24 hours, Concentration 100 μM
Protocol: as §1

IL-6 = assay: Cytokine Release from Human PBMCs: IL-6; format: cell-based; details: LPS, 24 hours, Concentration 100 μM
Protocol: as §1

AhR = molecular target: T1, AhR (Homo sapiens, UniProt P35869); assay: AhR Activation in Caco-2 Cells Through CYP1A1 mRNA Expression; details: overnight
T1 sequence (P35869 11-848): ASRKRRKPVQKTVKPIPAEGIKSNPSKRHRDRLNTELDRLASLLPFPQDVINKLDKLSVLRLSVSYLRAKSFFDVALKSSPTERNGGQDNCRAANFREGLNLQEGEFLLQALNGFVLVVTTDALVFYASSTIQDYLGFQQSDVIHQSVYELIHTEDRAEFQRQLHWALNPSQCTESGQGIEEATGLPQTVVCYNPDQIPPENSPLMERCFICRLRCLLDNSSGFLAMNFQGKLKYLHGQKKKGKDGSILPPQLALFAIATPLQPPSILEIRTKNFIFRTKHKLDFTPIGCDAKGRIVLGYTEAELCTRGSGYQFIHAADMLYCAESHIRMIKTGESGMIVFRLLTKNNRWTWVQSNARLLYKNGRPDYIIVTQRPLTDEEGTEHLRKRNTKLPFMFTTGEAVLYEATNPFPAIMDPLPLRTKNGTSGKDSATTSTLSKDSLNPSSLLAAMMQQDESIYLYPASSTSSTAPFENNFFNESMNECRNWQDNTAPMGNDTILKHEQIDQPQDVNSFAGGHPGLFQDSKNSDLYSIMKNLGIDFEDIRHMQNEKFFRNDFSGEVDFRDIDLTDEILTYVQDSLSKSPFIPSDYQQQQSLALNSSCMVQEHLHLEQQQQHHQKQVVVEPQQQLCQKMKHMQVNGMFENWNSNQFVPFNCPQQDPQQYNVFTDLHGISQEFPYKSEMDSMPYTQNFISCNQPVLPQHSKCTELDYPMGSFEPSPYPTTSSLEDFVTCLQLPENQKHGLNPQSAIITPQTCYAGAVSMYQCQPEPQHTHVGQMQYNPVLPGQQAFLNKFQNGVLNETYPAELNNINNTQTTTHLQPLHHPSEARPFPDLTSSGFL
Protocol: Caco-2 cells from American Type Culture Collection (ATCC) were plated in a sterile tissue culture treated 96-well plate (ThermoFisher) at 8.0×10^5 cells per well, and grown overnight at 37° C., 5% CO2 in DMEM complete (Gibco) in order to achieve confluence. After the incubation medium was aspirated off of the Caco-2 monolayers, tissues were then washed with 200 μL of warmed PBS solution, and subsequently 190 μL of pre-warmed growth medium was added to each well. Compounds of interest were diluted at a 20× concentration in growth medium containing 2% DMSO, and 10 μL of compound solutions were added to respective wells in triplicate. Compounds where incubated overnight at 37° C., 5% CO2. 2-(1′H-indole-3′-carbonyl)-thiazole-4-carboxylic acid methyl ester (ITE) was used as the positive control for AhR activation at 1 and 100 μM concentrations. At the end of the incubation, medium was aspirated off of the Caco-2 cells, and washed with 100 μL of cold PBS solution. RNA was extracted via the TaqMan™ Gene Expression Cells-to-CT™ Kit (ThermoFisher) according to the manufacturer's protocol. The QuantStudio 6 Flex (Applied Biosciences) was used to analyze mRNA levels of CYP1A1 using GAPDH as the endogenous control. TaqMan™ probe sets for both genes were acquired from ThermoFisher. Samples were run in triplicate and data was analyzed using the QuantStudio software and reported as linear (Table 6) and log 2(ΔΔCT) values. Statistical analysis was performed using a two-tailed t-test comparing CYP1A1 levels in the presence of each individual compound to the vehicle negative control.

[1] = Homo sapiens, 144 h, TGF-β, read-out: Treg induction % DMSO

## C[C@@H](O)CCO [(R) 1,3-butanediol]
TNFα
  TNFα % of DMSO control: = ((=) 90% > <110% DMSO)
MIP-1β; Conc. 100.0 μM
  % MIP-1β (DMSO + LPS = 100%): + (+ = <90% Vehicle)
MIP-1β; Conc. 500.0 μM
  % MIP-1β (DMSO + LPS = 100%): + (+ = <90% Vehicle)
MIP-1α; Conc. 100.0 μM
  % MIP-1α (Vehicle + LPS = 100%): − (− = >90% Vehicle)
MIP-1α; Conc. 500.0 μM
  % MIP-1α (Vehicle + LPS = 100%): − (− = >90% Vehicle)
Caco-2 colonocytes; 100 μM
  % Change in TEER from DMSO: − (<125%: −)
Caco-2 colonocytes; 0.5 mM
  % Change in TEER from DMSO: − (<125%: −)
IL-8; Conc. 100.0 μM
  % IL-8 (Vehicle + LPS = 100%): − (− = >90% Vehicle)
IL-8; Conc. 500.0 μM
  % IL-8 (Vehicle + LPS = 100%): − (− = >90% Vehicle)
naïve CD4+ T cells; 100 μM
  Cell viability % DMSO: = (90% > <110%: =)
naïve CD4+ T cells; 0.5 mM
  Cell viability % DMSO: = (90% > <110%: =)
naïve CD4+ T cells; Homo sapiens, 144 h, TGF-β, IL-2, 100 μM, read-out: Treg induction % DMSO
  activity at 100 µM: 90 to 110%
naïve CD4+ T cells; Homo sapiens, 144 h, TGF-β, IL-2, 0.5 mM, read-out: Treg induction % DMSO
  activity at 500 µM: 90 to 110%
IL-1β
  IL1β % DMSO control: = ((=) 90% > <110% DMSO)
IL-6
  IL6 % DMSO control: = ((=) 90% > <110% DMSO)

## COC(=O)c1csc(C(=O)c2c[nH]c3ccccc23)n1 [ITE, 2-(1′H-indole-3′-carbonyl)-thiazole-4-carboxylic acid methyl ester, reference compound]
AhR; Conc. 1.0 μM
  Average CYP1A1 mRNA levels: +++ (+++ = >10-fold Vehicle)

## CC(O)CCO (centres unmarked) [butanediol]
AhR; Conc. 500.0 μM
  Average CYP1A1 mRNA levels: − (− = <2-fold Vehicle)

## O=c1c(O)c(-c2ccc(O)c(O)c2)oc2cc(O)cc(O)c12 [quercetin]
TNFα
  TNFα % of DMSO control: + ((+) 50% > <90% DMSO)
MIP-1β; Conc. 0.1 μM
  % MIP-1β (DMSO + LPS = 100%): − (− = >90% Vehicle)
MIP-1β; Conc. 1.0 μM
  % MIP-1β (DMSO + LPS = 100%): − (− = >90% Vehicle)
MIP-1α; Conc. 0.1 μM
  % MIP-1α (Vehicle + LPS = 100%): − (− = >90% Vehicle)
MIP-1α; Conc. 1.0 μM
  % MIP-1α (Vehicle + LPS = 100%): − (− = >90% Vehicle)
Caco-2 colonocytes; 100 nM
  % Change in TEER from DMSO: − (<125%: −)
Caco-2 colonocytes; 1 μM
  % Change in TEER from DMSO: + (125% > <150%: +)
IL-8; Conc. 0.1 μM
  % IL-8 (Vehicle + LPS = 100%): − (− = >90% Vehicle)
IL-8; Conc. 1.0 μM
  % IL-8 (Vehicle + LPS = 100%): − (− = >90% Vehicle)
naïve CD4+ T cells; 100 nM
  Cell viability % DMSO: = (90% > <110%: =)
naïve CD4+ T cells; 1 μM
  Cell viability % DMSO: = (90% > <110%: =)
naïve CD4+ T cells; Homo sapiens, 144 h, TGF-β, IL-2, 100 nM, read-out: Treg induction % DMSO
  activity at 0.1 µM: 90 to 110%
naïve CD4+ T cells; [1]
  activity at 1 µM: 90 to 110%
IL-1β
  IL1β % DMSO control: + ((+) 50% > <90% DMSO)
IL-6
  IL6 % DMSO control: + ((+) 50% > <90% DMSO)

## Oc1ccc(C=Cc2cc(O)cc(O)c2)cc1 [resveratrol]
TNFα
  TNFα % of DMSO control: + ((+) 50% > <90% DMSO)
MIP-1β; Conc. 10.0 μM
  % MIP-1β (DMSO + LPS = 100%): ++ (++ = <70% Vehicle)
MIP-1α; Conc. 10.0 μM
  % MIP-1α (Vehicle + LPS = 100%): + (+ = <90% Vehicle)
Caco-2 colonocytes; 10 μM
  % Change in TEER from DMSO: − (<125%: −)
Caco-2 colonocytes; 100 μM
  % Change in TEER from DMSO: +++ (200%>: +++)
IL-8; Conc. 10.0 μM
  % IL-8 (Vehicle + LPS = 100%): − (− = >90% Vehicle)
naïve CD4+ T cells; 1 μM
  Cell viability % DMSO: − (<90%: −)
naïve CD4+ T cells; 10 μM
  Cell viability % DMSO: − (<90%: −)
naïve CD4+ T cells; [1]
  activity at 1 µM: 110 to 130%
naïve CD4+ T cells; Homo sapiens, 144 h, TGF-β, IL-2, 10 μM, read-out: Treg induction % DMSO
  activity at 10 µM: 110 to 130%
IL-1β
  IL1β % DMSO control: = ((=) 90% > <110% DMSO)
IL-6
  IL6 % DMSO control: + ((+) 50% > <90% DMSO)
